Data as given in patent publication US10787413B2, “Derivatives of curcuminoids and use thereof as an anticancer agent” (CHINA MEDICAL UNIVERSITY, priority 2016, dated 2020).

Tested on: MDA-MB-231 cells
Assay: cDNA microarray
Assay type: cell-based, human
Procedure: The cells were incubated with or without 21a. After exposure, cell pellets were collected, and the total RNA from each treatment was purified using the Qiagen RNeasy Mini Kit (Qiagen, Valencia, Calif., USA). The RNA purity was determined to check the quality at 260/280 nm using a NanoDrop 1000 Spectrophotometer (Thermo Fisher Scientific, Wilmington, Del., USA). mRNA was amplified and labeled using the Gene-Chip WT Sense Target Labeling and Control Reagents kit (Affymetrix, Santa Clara, Calif., USA) for expression analysis. The synthesized cDNA was labeled with fluorescence and then hybridized for 17 h using AffymetrixGeneChip Human Gene 1.0 ST array (Affymetrix) to determine microarray hybridization following the manufacturer's protocols. The arrays were subsequently washed using Fluidics Station 450 (Affymetrix), stained with streptavidin-phycoerythrin (Gene-Chip Hybridization, Wash, and Stain kit, Affymetrix), and scanned on a GeneChip Scanner 3000 (Affymetrix). The localized concentrations of fluorescent molecules were quantitated and analyzed using Expression Console Software (Affymetrix) with default RMA parameters as previously described (Chang et al. 2012; Liu et al. 2013). […]

## COc1cc(/C=C/C(=O)/C=C(O)/C=C/c2ccc(OC(=O)C(C)(CO)CO)c(OC)c2)ccc1OC(=O)C(C)(CO)CO [Compound 21a, ((1E,3Z,6E)-3-Hydroxy-5-oxohepta-1,3,6-triene-1,7-diyl)bis(2-methoxy-4,1-phenylene) bis(3-hydroxy-2-(hydroxymethyl)-2-methylpropenoate)]
mRNA, MDA-MB-231 cells, 24-h treatment, ID PH_hs_0027209
  log2 (Ratio) GADD45B: 2.665
mRNA, MDA-MB-231 cells, 24-h treatment, ID PH_hs_0027843
  log2 (Ratio) FAM20C: −2.724
mRNA, MDA-MB-231 cells, 24-h treatment, ID PH_hs_0027863
  log2 (Ratio) LRRC45: −2.718
mRNA, MDA-MB-231 cells, 24-h treatment, ID PH_hs_0027902
  log2 (Ratio) ABL2: 4.287
mRNA, MDA-MB-231 cells, 24-h treatment, ID PH_hs_0028200
  log2 (Ratio) CENPI: −2.537
mRNA, MDA-MB-231 cells, 24-h treatment, ID PH_hs_0028915
  log2 (Ratio) CCDC85B: −2.622
mRNA, MDA-MB-231 cells, 24-h treatment, ID PH_hs_0028987
  log2 (Ratio) TCF21: 2.769
mRNA, MDA-MB-231 cells, 24-h treatment, ID PH_hs_0029660
  log2 (Ratio) AKR1C1: 2.695
mRNA, MDA-MB-231 cells, 24-h treatment, ID PH_hs_0030800
  log2 (Ratio) FANCF: −2.553
mRNA, MDA-MB-231 cells, 24-h treatment, ID PH_hs_0030976
  log2 (Ratio) NFKBIB: 2.516
mRNA, MDA-MB-231 cells, 24-h treatment, ID PH_hs_0031143
  log2 (Ratio) VIMP: 3.213
mRNA, MDA-MB-231 cells, 24-h treatment, ID PH_hs_0031540
  log2 (Ratio) GNG2: −2.661
mRNA, MDA-MB-231 cells, 24-h treatment, ID PH_hs_0031719
  log2 (Ratio) CCL26: 4.147
mRNA, MDA-MB-231 cells, 24-h treatment, ID PH_hs_0033027
  log2 (Ratio) SIK1: 2.548
mRNA, MDA-MB-231 cells, 24-h treatment, ID PH_hs_0033101
  log2 (Ratio) DDIT3: 3.556
mRNA, MDA-MB-231 cells, 24-h treatment, ID PH_hs_0035337
  log2 (Ratio) OMA1: −2.514
mRNA, MDA-MB-231 cells, 24-h treatment, ID PH_hs_0035404
  log2 (Ratio) SAT1: 3.764
mRNA, MDA-MB-231 cells, 24-h treatment, ID PH_hs_0035466
  log2 (Ratio) AKR1C3|AKR1C1: 2.962
mRNA, MDA-MB-231 cells, 24-h treatment, ID PH_hs_0035609
  log2 (Ratio) ETV1: −2.788
mRNA, MDA-MB-231 cells, 24-h treatment, ID PH_hs_0035614
  log2 (Ratio) RC3H1: 3.063
mRNA, MDA-MB-231 cells, 24-h treatment, ID PH_hs_0035765
  log2 (Ratio) GDF15: 3.427
mRNA, MDA-MB-231 cells, 24-h treatment, ID PH_hs_0036878
  log2 (Ratio) PIF1: −2.714
mRNA, MDA-MB-231 cells, 24-h treatment, ID PH_hs_0037242
  log2 (Ratio) MALAT1: 2.683
mRNA, MDA-MB-231 cells, 24-h treatment, ID PH_hs_0037472
  log2 (Ratio) MALAT1: 3.48
mRNA, MDA-MB-231 cells, 24-h treatment, ID PH_hs_0038982
  log2 (Ratio) LOC100134259: −2.503
mRNA, MDA-MB-231 cells, 24-h treatment, ID PH_hs_0040619
  log2 (Ratio) MXD3: −2.891
mRNA, MDA-MB-231 cells, 24-h treatment, ID PH_hs_0042225
  log2 (Ratio) DUSP5: 2.541
mRNA, MDA-MB-231 cells, 24-h treatment, ID PH_hs_0042334
  log2 (Ratio) MT4: 3.931
mRNA, MDA-MB-231 cells, 24-h treatment, ID PH_hs_0042409
  log2 (Ratio) DNAJB1: 2.767
mRNA, MDA-MB-231 cells, 24-h treatment, ID PH_hs_0043719
  log2 (Ratio) HMGCS1: 2.895
mRNA, MDA-MB-231 cells, 24-h treatment, ID PH_hs_0044272
  log2 (Ratio) CLK1: 2.829
mRNA, MDA-MB-231 cells, 24-h treatment, ID PH_hs_0044921
  log2 (Ratio) HSPA1A: 2.535
mRNA, MDA-MB-231 cells, 24-h treatment, ID PH_hs_0045501
  log2 (Ratio) EID3: 4.039
mRNA, MDA-MB-231 cells, 24-h treatment, ID PH_hs_0045838
  log2 (Ratio) SLC6A6: 2.838
mRNA, MDA-MB-231 cells, 24-h treatment, ID PH_hs_0046245
  log2 (Ratio) RN7SK: 4.763
mRNA, MDA-MB-231 cells, 24-h treatment, ID PH_hs_0047352
  log2 (Ratio) MARCKS: −3.043
mRNA, MDA-MB-231 cells, 24-h treatment, ID PH_hs_0047571
  log2 (Ratio) PDP1: −2.547
mRNA, MDA-MB-231 cells, 24-h treatment, ID PH_hs_0047697
  log2 (Ratio) ARF6: −2.688
mRNA, MDA-MB-231 cells, 24-h treatment, ID PH_hs_0047965
  log2 (Ratio) PHLDA1: −2.959
mRNA, MDA-MB-231 cells, 24-h treatment, ID PH_hs_0048553
  log2 (Ratio) MYCT1: 3.866
mRNA, MDA-MB-231 cells, 24-h treatment, ID PH_hs_0048881
  log2 (Ratio) FKBP4: 2.809
mRNA, MDA-MB-231 cells, 24-h treatment, ID PH_hs_0048993
  log2 (Ratio) NRP1: −2.677
mRNA, MDA-MB-231 cells, 24-h treatment, ID PH_hs_0049449
  log2 (Ratio) GPR39: −2.73
mRNA, MDA-MB-231 cells, 24-h treatment, ID PH_hs_0049600
  log2 (Ratio) HSPA6: 6.644
mRNA, MDA-MB-231 cells, 24-h treatment, ID PH_hs_0060053
  log2 (Ratio) ZNF121: 2.575
mRNA, MDA-MB-231 cells, 24-h treatment, ID PH_hs_0060828
  log2 (Ratio) TRIB3: 2.735
mRNA, MDA-MB-231 cells, 24-h treatment, ID PH_hs_0061012
  log2 (Ratio) ZBTB21: 2.731
mRNA, MDA-MB-231 cells, 24-h treatment, ID PH_hs_0062199
  log2 (Ratio) AKR1C1|LOC101060798: 3.357
mRNA, MDA-MB-231 cells, 24-h treatment, ID PH_hs_p061784
  log2 (Ratio) CDKN1A: 2.967
total
  genes expressed at least by 2.5 folds compared with untreated control: 97 genes
